Measurements: US20130253179A1, “Functionalization Processes and Reactants Used in Such Processes Using an Isatoic Anhydride or a Derivative Thereof, Biological Molecules Thus Treated and Kits” (priority 2010, published 2013)

Key:
[1] = tested on: model oligoribonucleotide (ORN) with 27 bases; assay: Functionalisation of a model ORN with 27 bases: functionalisation rate and regiospecificity by HPLC/LC-MS after nuclease P1/alkaline phosphatase hydrolysis; format: biochemical; conditions: for Fr (corrected functionalisation rate): ORN 8 nmol; for Fr (corrected functionalisation rate) / External/internal regiospecificity (uncorrected ratio of areas acylated mononucleosides / acylated dinucleotides): compound 30 mM, 1 h at 65° C., 250 mM TEAAc pH 7, 25% DMSO
Description: For this purpose, a fixed quantity of ORN is reacted with an isatoic anhydride derivative conjugated to a molecule of interest (Cy3 IA Me (13)), under various temperature conditions, duration conditions, reaction medium conditions, etc. HPLC monitoring of the reaction at 260 nm makes it possible to detect the disappearance of the peak corresponding to the initial ORN and the appearance of peaks corresponding to acylated ORN. These products have a greater retention time and have an absorption spectrum corresponding to both that of ORN and that of the fluorescent label.
However, for greater precision on the functionalisation site and to precisely evaluate the functionalisation rate (Fr), the ORN population (labelled and unlabelled) is separated from the excess label by precipitation with acetone/lithium perchlorate or by gel permeation (NAP 5™, GE Health Care. Then the ORNs thus obtained are submitted to hydrolysis with the nuclease P1 (Aldrich, Saint Louis, USA) and with the alkaline phosphatase (Aldrich, Saint Louis, USA), in order to hydrolyse the phosphate diester bonds of ORN.
The ORN functionalisation rate (Fr) is evaluated by measuring: • the area corresponding to the terminal mononucleoside adducts (functionalised at 2′ and at 3′) and the area corresponding to the acylated dinucleosides (functionalised internally on 2′OH) • compared to the area of the peaks corresponding to the four ribonucleosides.
The internal/external regiospecificity of the acylation is evaluated by measuring the relative proportion of the areas corresponding to the: • end mono-nucleotides acylated at 2′ and at 3′ • and di-nucleotides acylated internally on 2′OH • which are easily detectable by HPLC.
The mixture is incubated for 60 minutes at 65° C. in an oven on a rack which is temperature-balanced in advance. An HPLC injection (conditions 3) makes it possible to monitor a formation of a certain quantity of acylated ORN as described in FIG. 6. To eliminate the salts and the excess label, the mixture is then purified on Sephadex NAP 5 gel (GE Health Care, Uppsala, Sweden)) and/or triple precipitation in 1.2 mL of a 180 mM Acetone/LiClO4 75/25 mixture. To finish, the pellet is dried with acetone and is evaporated with the centrifugal evaporator (RCT 60, Jouan, St Herblain, France). The residue is then taken up in 33 μL of a H2O/DMSO 85/15 solution and an HPLC injection (conditions 3) is performed in order to verify the proper elimination of the label. There is added to the mixture 2 μL of nuclease P1 (ref.: N8630 Sigma-Aldrich, St Louis, USA) in 1 U/μl solution in its buffer: 20 mM sodium acetate pH 5.5; 1 mM ZnCl2; 50 mM NaCl and 1 μL of 7 u/μl alkaline phosphatase in water (Ref. P7923-2KU Sigma-Aldrich, St Louis, USA). The medium is left at ambient temperature for 4 to 6 hours. It is then injected into HPLC (conditions 3) in order to verify the total hydrolysis of the ORN and in order to analyse the nature of the fragments obtained in accordance with what was described above and as described in FIG. 6.
The functionalisation rate is evaluated with UV at 260 nm by integration of the clusters corresponding to the acylated dinucleotides and to the acylated nucleosides) relative to the clusters corresponding to the four ribonucleosides. The ratio of the population of acylated dinucleotides to the population of acylated nucleosides is evaluated in the same way in order to evaluate the percentage of functionalisation on the 3′ terminal end.
The functionalisation rate values, presented within the framework of this invention, take into account the correction factor which must be applied according to the molar extinction coefficient at 260 nm of each of the nucleosides and according to whether they are nucleosides or dinucleotides. […]

ODN with 53 bases = assay: RNA vs DNA chemoselectivity: functionalisation of an ODN with 53 bases; format: biochemical; conditions: compound 30 mM, DMSO/TEAAc buffer 25/75 (250 mM pH 7), 1 h at 65° C.
Protocol: After precipitation with acetone and hydrolysis with nuclease P1 and alkaline phosphatase, the hydrolysed fragments are analysed by LC-MS, as described in example 3. An example of the chromatograms monitoring the reaction of ODN or ORN with compound 13 is shown in FIG. 9, in which graphs A, B and C respectively represent ORN, ORN functionalised with compound 13 and precipitated, and ORN functionalised with 13, precipitated and hydrolysed. Graphs D, E and F represent the same thing, but with ODN.

[2] = FIG. 6 graph D, share of functionalised adducts

| SMILES | Fr (corrected functionalisation rate) [1] [%] | External/internal regiospecificity (uncorrected ratio of areas acylated mononucleosides / acylated dinucleotides) [1] | corrected functionalisation rate of the ODN (ODN with 53 bases) [%] | acylated dinucleotides (peak 1) [1, 2] [%] | nucleosides acylated at 2′ or at 3′ (peaks 2 and 3) [1, 2] [%] | Fr (corrected functionalisation rate) ([1]; listed as 13) [%] | Fr (corrected functionalisation rate) ([1]; listed as Cy3 IA ME (13)) [%] | corrected functionalisation rate ([1]; compound 15 mM, protocol of example 3) [%] |
| --- | --- | --- | --- | --- | --- | --- | --- | --- |
| Cn1c(=O)oc(=O)c2cc(NC(=O)CCSSCCNC(=O)CCOCCOCCOCCOCCNC(=O)CCCCC3SCC4NC(=O)NC43)ccc21 (centres unmarked) [5Biot PEG4 SS IA Me 24] | 2.8 | 62/38 | 0.1 | – | – | – | – | – |
| CCN1/C(=C\C=C\C2=[N+](CCCCCC(=O)Nc3ccc4c(c3)c(=O)oc(=O)n4C)c3ccc(S(=O)(=O)[O-])cc3C2(C)C)C(C)(C)c2cc(S(=O)(=O)[O-])ccc21.[K+] [Cy3 IA Me 13, 1-methyl 5-Cy3-isatoic anhydride] | 4.5 | 58/42 | 0.1 | 42 | 58 | 4.5 | 4.2 | 2.6 |
